What was measured:
[1] = system: peripheral blood and splenic B cells; test: Peripheral blood and splenic B cells by flow cytometry (Example 6); type: in vivo, mouse; settings: 20 mg/kg ip, 5 hrs post-treatment
Method: (§1) Male C57BL/6 mice (age 8-10 wks) were treated with mirt (20 mg/kg ip) or vehicle and livers removed 3-5 hrs later for B cell isolation and characterization by flow cytometry (FACS). Similarly peripheral blood and splenic B cells numbers were determined by FACS. Liver cytokine and chemokine levels were measured by Luminex®.

[2] = system: hepatic macrophages (Kupffer cells), monocytes and B cells; test: Intravital microscopy (IVM) of liver after mirtazapine treatment; type: in vivo, mouse
Excerpt: Rationale and Relevant Preliminary Data: The normal liver macrophage pool consists of a large self-renewing, non-migratory population of KCs that are important for maintaining tissue homeostasis^1-3. KCs are situated within the sinusoidal blood flow and are an essential component of hepatic innate immunity, playing key roles in inflammation and defense^2, 4. In addition, KCs fulfill homeostatic functions important for normal liver physiology5. KCs are capable of considerable phenotypic plasticity and are highly sensitive to changes within the hepatic environment, including cytokines^2, 4, 6, 7. In response to environmental cues, KCs are activated and can be polarized along a spectrum between M1-like (induced by IFNγ, TNFα, IL-1β, IL-12, TLR4 agonists) and M2-like (induced by IL-4, IL-13, IL-10) phenotypes^2, 4, 6, 7, and can dynamically shift between these phenotypic extremes in response to changes in their microenvironment^1, 2, 4, 8. This shift is critical for regulating inflammatory and repair processes in the liver^1, 8, 9.

[3] = system: patients in the UK THIN database; test: Retrospective THIN cohort study: incidence of autoimmune diseases with mirtazapine exposure (Example 7); type: in vivo, human; settings: exposed vs matched (2:1) non-exposed cohort
Excerpt: Patients who were prescribed mirtazapine. 90 day ([…]) identified and compared to a matched patient cohort (2:1) not exposed to mirtazapine (n=372,822). Out models were adjusted for depression, use of other antidepressants, comorbidity status, smoking and alcohol consumption.

circulating TNFα = settings: patients with major depressive disorder; cited from earlier work
[4] = system: hepatic CXCL10/IP-10, CXCL9/MIG, ICAM-1 and VCAM-1 expression; test: Immunohistochemistry of liver sections after mirtazapine treatment; type: in vivo, mouse
Method: Male 8-10 week old C57BL/6 mice (Jackson Labs, Bar Harbor, Me.) were used. All procedures were approved by the University of Calgary Animal Care Committee (protocol numbers AC14-0129 and AC14-0128) and were performed in accordance with the guidelines of the Canadian Council on Animal Care. To delineate the impact of mirtazapine treatment upon liver immune cell numbers and phenotype, and upon cytokine/chemokine networks within the liver, mice were treated with mirtazapine 1-20 mg/kg intraperitoneally^13-15. Mirtazapine was suspended in 1% aqueous solution of Tween 80, whereas the control group received 1% aqueous solution of Tween 80. Blood and liver samples were collected 5 hours post-mirtazapine treatment (or 16 hours post-Con A treatment). The detailed experimental protocols, lists of antibodies and reagents used, flow cytometry gating, and immune cell phenotyping strategies, are described herein. Hepatic CXCL10/IP-10, CXCL9/MIG, ICAM-1 and VCAM-1 expression were determined using immunohistochemistry, as previously described. Briefly, following initial deparaffinization and rehydration of tissue sections, antigen retrieval was performed in lx Citrate buffer, PH 6.0 (Abcam) for IP-10/CXCL9 and MIG/CXCL9, or in 1X EDTA buffer pH 8.0 for ICAM1 and VCAM-1. In all cases slides were incubated in antigen retrieval buffer at 95-100° C. for 20 minutes. […] This was followed by incubation with biotinylated rabbit anti-goat, goat-anti rat or goat anti-rabbit secondary antibodies (at 1:150) for 1 hour at room temperature (Vector Labs). Negative staining controls were performed by omission of primary antibody, or by omission of both primary and secondary antibodies. […] This was followed by incubation with Vectastain Elite ABC kit (Vector Laboratories) for 30 min at room temperature. Color was developed with Nova Red Chromogen (ImmPACT NovaRED Peroxidase Substrate, Vector Lab, Burlingame, Calif.), after which sections were counterstained with hematoxylin (EMD Millipore). Mounted slides were converted to virtual slides with a BX61 VS virtual microscopy system equipped with an XC10 camera and VS ASW software (Olympus) (original magnification ×400). For ICAM-1, VCAM1, CXCL9/Mig, and CXCL10/IP10 expression, all scanned virtual slides of the sections were examined in a blinded fashion, and expression patterns evaluated and described.

hepatic B cells = test: Hepatic B cell characterization by flow cytometry, with liver/plasma cytokine and chemokine levels (Example 6); type: in vivo, mouse
Method: as §1

SMILES: CN1CCN2c3ncccc3Cc3ccccc3C2C1 (stereo not shown) [Mirtazapine]
- Peripheral blood B cells (as % of total CD45+ leukocytes) [1]: highly significant drop
- Splenic B cell numbers [1]: paralleled by similar changes
- Interactions between hepatic B cells (CD19+) and hepatic macrophages (F4/80+) ([2]; 20 mg/kg, 3 hrs post-treatment, preliminary data): trend towards increased interactions
- Kupffer cell (F4/80+) activation: retraction of cellular processes, rounding of cell shape ([2]; 1 hr after treatment (FIG. 14)): activation of KCs
- Hepatic monocyte populations in CCR2RFP/+CX3CR1GFP/+ reporter mice ([2]; ~20 hrs post-treatment, pilot study): apparent increase in overall hepatic monocyte numbers coupled with the appearance of CCR2+CX3CR1+ double positive monocytes
- Adjusted Incidence Rate Ratio (adjusted IRR), Multiple Sclerosis [3]: 0.80
- Adjusted Incidence Rate Ratio (adjusted IRR), Psoriasis [3]: 0.93
- Adjusted Incidence Rate Ratio (adjusted IRR), Rheumatoid Arthritis [3]: 0.55
- Circulating TNFα levels (circulating TNFα): increased circulating TNFα levels
- Hepatic CXCL10 expression (IHC) ([4]; hepatocytes and sinusoidal endothelium, vs vehicle): strikingly increased
- Hepatic ICAM-1 expression (IHC) ([4]; normal liver, vs vehicle): did not notably alter ICAM-1 expression
- Hepatic VCAM-1 expression (IHC) ([4]; normal liver, vs vehicle): enhanced VCAM-1 staining intensity in sinusoidal endothelium and a marked increase in VCAM-1 expression intensity in sinusoidal immune cells
- Hepatic CXCL9 staining (IHC) ([4]; vs vehicle treated mice): increased CXCL9 staining mainly within hepatocytes
- B cell CXCR3 expression levels (MFI) (hepatic B cells; 20 mg/kg ip, 3-5 hrs): 12180±315.9
- Elevation of hepatic CXCL10 levels (Luminex) (hepatic B cells; 20 mg/kg ip, 3-5 hrs): ~120 fold
- Frequency of VLA-4+ hepatic B cells (hepatic B cells; 20 mg/kg ip, 3-5 hrs): 61.9+1.8%
- Hepatic CXCR3+ B cells (hepatic B cells; 20 mg/kg ip, 3-5 hrs): 47.5+1.4%
- Hepatic CXCR3hi B cells (hepatic B cells; 20 mg/kg ip, 3-5 hrs): 30.7±1.5%
- Hepatic CXCR3lo B cells (hepatic B cells; 20 mg/kg ip, 3-5 hrs): did not significantly alter
- Increase in hepatic IFNγ levels (Luminex) (hepatic B cells; 20 mg/kg ip, 3-5 hrs): ~8 fold
- VLA-4+CXCR3hi B cells (hepatic B cells; 20 mg/kg ip, 3-5 hrs): 16.1±1.7%
- Decrease in total hepatic B cell (IgM+) numbers (hepatic B cells; 20 mg/kg ip, within 3-5 hours): ~48%
- % B2 cells of IgM+ B cells in liver (hepatic B cells; 5 hr post-treatment): 29.6%+2.3%
- B1a B cells within the liver (hepatic B cells; 5 hrs post-treatment): 32.4%+1.5%
- Plasma levels of CXCL10 (ELISA) (hepatic B cells; 5 hrs post-treatment): 138.4 ± 24.4 pg/mL
- Hepatic B1b B cells (hepatic B cells; 5 hrs post-treatment, NS): 23.5%+1.4%
- CD11b+Ly6Chi monocytes producing CXCL10 (hepatic B cells; flow cytometry, 3 hrs post-treatment): 12.2%±3.8%
- Hepatic VCAM-1 expression (immunohistochemistry) (hepatic B cells; post-mirt): clear upregulation
